Results: US20260109707A1, “HETEROBIFUNCTIONAL COMPOUNDS AND METHODS OF TREATING DISEASE” (Halda Therapeutics OpCo. Inc., priority 2022, published 2026)
Where two headings read alike, the source gives them in different places.

What was measured:
[1] = tested on: T-Rex 293 cell line SC3 cells having increased expression of androgen receptor protein due to exposure to doxycycline; experiment: Cellular growth inhibition assay, T-Rex 293 SC3 cells with doxycycline (CellTiter-Glo, 72 hours); assay type: cell-based; conditions: T-Rex 293 SC3 cells with increased androgen receptor expression due to doxycycline (10 ng/mL)
How it was run: (§1)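 Doxycycline (10 ng/mL) was either included or omitted to toggle wild-type androgen receptor expression in SC3 cells, a T-Rex 293 clone, grown in stripped-serum, phenol red-free medium. After 72 hours with compound, viable cells were quantified by CellTiter-Glo 2.0.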

[2] = tested on: T-Rex 293 cell line SC3 cells lacking increased expression of androgen receptor protein; experiment: Cellular growth inhibition assay, T-Rex 293 SC3 cells without doxycycline (CellTiter-Glo, 72 hours); assay type: cell-based; conditions: T-Rex 293 cell line SC3 cells not exposed to doxycycline (lacking increased androgen receptor expression)
How it was run: as §1

VCaP cells = experiment: Cellular growth inhibition assay for VCaP cells (CellTiter-Glo, 72 hours); assay type: cell-based, human
How it was run: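 Luminescent viability signal after 72 h of compound exposure gave GI50 values by four-parameter nonlinear regression. Compounds were added in 0.5% DMSO to cells plated 24 h earlier at 5000/well in DMEM containing 10% FBS.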

T47D cells = experiment: Cellular growth inhibition assay for T47D cells (CellTiter-Glo, 72 hours); assay type: cell-based, human; conditions: 72 hours treatment
How it was run: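 Luminescence from CellTiter-Glo 2.0 after 72 h of compound exposure gives the viability signal. Cells grew in insulin-supplemented (0.2 units/mL) DMEM with 10% FBS and were treated one day after seeding at 0.5% DMSO. GI50 values come from four-parameter nonlinear regression.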

| SMILES | GI50 (VCaP cells; Homo sapiens, VCaP, 72 h) | GI50 (T47D cells; Homo sapiens, T47D, 72 h) | GI50 (VCaP cells) | GI50 (T47D cells) | GI50 ([1]; 72 h) | GI50 ([2]; 72 h) | GI50 [2] | GI50 [1] |
| --- | --- | --- | --- | --- | --- | --- | --- | --- |
| Cc1sc2c(c1C)C(c1ccc([C@H]3CC[C@H](N4CCCN(c5ccc(C(=O)N[C@H]6CC[C@H](Oc7ccc(C#N)c(Cl)c7)CC6)nn5)CC4)CC3)cc1)=N[C@@H](Cc1ncco1)c1nnc(C)n1-2 [I-236] | > 3000 nM | > 3000 nM | – | – | < 500 nM | > 3000 nM | – | – |
| Cc1sc2c(c1C)C(c1ccc(N3CCC(CNC(=O)c4ccc(C(=O)N[C@H]5CC[C@H](Oc6ccc(C#N)c(Cl)c6)CC5)nn4)CC3)cc1)=N[C@@H](Cc1ncco1)c1nnc(C)n1-2 [I-232] | – | – | < 500 nM | < 500 nM | – | – | 500 to 1500 nM | < 500 nM |
| Cc1sc2c(c1C)C(c1ccc(C[C@H]3C[C@@H](C4CCCN(c5ccc(C(=O)N[C@H]6CC[C@H](Oc7ccc(C#N)c(Cl)c7)CC6)nn5)C4)C3)cc1)=N[C@@H](Cc1ncco1)c1nnc(C)n1-2 (stereo partly drawn) [I-120] | > 3000 nM | < 500 nM | – | – | < 500 nM | > 3000 nM | – | – |
| Cc1sc2c(c1C)C(c1ccc(OC3CC4(CCN(c5ccc(C(=O)N[C@H]6CC[C@H](Oc7ccc(C#N)c(Cl)c7)CC6)nn5)CC4)C3)cc1)=N[C@](C)(C(C)c1ncco1)c1nnc(C)n1-2 (stereo partly drawn) [I-237] | > 3000 nM | < 500 nM | – | – | < 500 nM | > 3000 nM | – | – |
| Cc1sc2c(c1C)C(c1ccc(CC[C@H]3C[C@]4(CCCN(c5ccc(C(=O)N[C@H]6CC[C@H](Oc7ccc(C#N)c(Cl)c7)CC6)nn5)C4)C3)cc1)=N[C@@H](C)c1nnc(C)n1-2 [I-327] | – | – | > 3000 nM | 1500 to 3000 nM | – | – | > 3000 nM | < 500 nM |
| Cc1sc2c(c1C)C(c1ccc(N3CCC[C@H](C(=O)N4CCC[C@@H](c5ccc(C(=O)N[C@H]6CC[C@H](Oc7ccc(C#N)c(Cl)c7)CC6)nn5)C4)C3)cc1)=N[C@H](Cc1ncco1)c1nnc(C)n1-2 [I-304] | > 3000 nM | > 3000 nM | – | – | > 3000 nM | > 3000 nM | – | – |
| Cc1sc2c(c1C)C(c1ccc(N3CCN(C4CCN(c5ccc(C(=O)N[C@H]6CC[C@H](Oc7ccc(C#N)c(Cl)c7)CC6)nn5)CC4)C3=O)cc1)=NC(Cc1ncco1)c1nnc(C)n1-2 (stereo partly drawn) [I-413] | – | – | 1500 to 3000 nM | 1500 to 3000 nM | < 500 nM | – | > 3000 nM | – |
| Cc1sc2c(c1C)C(c1ccc(N(C)CC(=O)N3CCC(c4ccc(C(=O)N[C@H]5CC[C@H](Oc6ccc(C#N)c(Cl)c6)CC5)nn4)CC3)cc1)=N[C@@H](Cc1ncco1)c1nnc(C)n1-2 [I-312] | > 3000 nM | > 3000 nM | – | – | > 3000 nM | > 3000 nM | – | – |
| Cc1sc2c(c1C)C(c1ccc([C@H]3C[C@@H](C4CC5(CCN(c6ccc(C(=O)N[C@H]7CC[C@H](Oc8ccc(C#N)c(Cl)c8)CC7)nn6)CC5)C4)C3)cc1)=N[C@@H](Cc1ncco1)c1nnc(C)n1-2 [I-380] | > 3000 nM | > 3000 nM | – | – | > 3000 nM | > 3000 nM | – | – |
| Cc1sc2c(c1C)C(c1ccc(C(=O)N3CCC[C@@H](Cc4ccc(C(=O)N[C@H]5CC[C@H](Oc6ccc(C#N)c(Cl)c6)CC5)nn4)C3)cc1)=N[C@H](Cc1ncco1)c1nnc(C)n1-2 [I-275] | > 3000 nM | > 3000 nM | – | – | < 500 nM | > 3000 nM | – | – |
| Cc1sc2c(c1C)C(c1ccc(CCO[C@@H]3CCCN(c4ccc(C(=O)N[C@H]5CC[C@H](Oc6ccc(C#N)c(Cl)c6)CC5)nn4)C3)cc1)=N[C@@H](C)c1nnc(C)n1-2 [I-324] | > 3000 nM | 1500 to 3000 nM | – | – | < 500 nM | > 3000 nM | – | – |
| Cc1sc2c(c1C)C(c1ccc(OCC3CC4(CCCN(c5ccc(C(=O)N[C@H]6CC[C@H](Oc7ccc(C#N)c(Cl)c7)CC6)nn5)C4)C3)nc1)=N[C@@H](C)c1nnc(C)n1-2 (stereo partly drawn) [I-425] | – | – | < 500 nM | 500 to 1500 nM | – | – | 500 to 1500 nM | < 500 nM |
| Cc1sc2c(c1C)C(c1ccc(CC[C@@H]3CC[C@@]4(CCCN(c5ccc(C(=O)N[C@H]6CC[C@H](Oc7ccc(C#N)c(Cl)c7)CC6)nn5)C4)C3)cc1)=N[C@@H](Cc1ncco1)c1nnc(C)n1-2 [I-214] | > 3000 nM | > 3000 nM | – | – | > 3000 nM | > 3000 nM | – | – |

More lines, main results first:

| GI50 (VCaP cells; Homo sapiens, VCaP, 72 h) | GI50 (T47D cells; Homo sapiens, T47D, 72 h) | GI50 (VCaP cells) | GI50 (T47D cells) | SMILES | GI50 ([1]; 72 h) | GI50 ([2]; 72 h) | GI50 [2] | GI50 [1] |
| --- | --- | --- | --- | --- | --- | --- | --- | --- |
| < 500 nM | 500 to 1500 nM | – | – | Cc1sc2c(c1C)C(c1ccc(N3CCC4(CCCN(c5ccc(C(=O)N[C@H]6CC[C@H](Oc7ccc(C#N)c(Cl)c7)CC6)nn5)C4)CC3)cc1)=NCc1nnc(C)n1-2 [I-422] | < 500 nM | > 3000 nM | – | – |
| < 500 nM | 500 to 1500 nM | – | – | Cc1sc2c(c1C)C(c1ccc([C@@H]3CCCCN3C(=O)[C@H]3CCCN(c4ccc(C(=O)N[C@H]5CC[C@H](Oc6ccc(C#N)c(Cl)c6)CC5)nn4)C3)cc1)=N[C@@H](Cc1ncco1)c1nnc(C)n1-2 [I-297] | < 500 nM | > 3000 nM | – | – |
| < 500 nM | 500 to 1500 nM | – | – | Cc1sc2c(c1C)C(c1ccc(CCO[C@H]3CCCN(c4ccc(C(=O)N[C@H]5CC[C@H](Oc6ccc(C#N)c(Cl)c6)CC5)nn4)C3)cc1)=N[C@@H](Cc1ncco1)c1nnc(C)n1-2 [I-279] | < 500 nM | < 500 nM | – | – |
| < 500 nM | 500 to 1500 nM | – | – | Cc1sc2c(c1C)C(c1ccc(OCC3CC4(CCCN(c5ccc(C(=O)N[C@H]6CC[C@H](Oc7ccc(C#N)c(Cl)c7)CC6)nn5)C4)C3)nc1)=N[C@@H](C)c1nnc(C)n1-2 (stereo partly drawn) [I-424] | < 500 nM | – | > 3000 nM | – |
| 1500 to 3000 nM | > 3000 nM | – | – | Cc1sc2c(c1C)C(c1ccc(CN3CC(=O)N4C[C@H](c5ccc(C(=O)N[C@H]6CC[C@H](Oc7ccc(C#N)c(Cl)c7)CC6)nn5)C[C@H]4C3=O)cc1)=N[C@@H](Cc1ncco1)c1nnc(C)n1-2 [I-343] | < 500 nM | > 3000 nM | – | – |
| < 500 nM | 500 to 1500 nM | – | – | Cc1sc2c(c1C)C(c1ccc(O[C@H]3CC[C@@]4(CCCN(c5ccc(C(=O)N[C@H]6CC[C@H](Oc7ccc(C#N)c(Cl)c7)CC6)nn5)C4)C3)cn1)=N[C@@H](Cc1ncco1)c1nnc(C)n1-2 [I-361] | < 500 nM | > 3000 nM | – | – |
| < 500 nM | < 500 nM | – | – | Cc1sc2c(c1C)C(c1ccc(OC3CC4(CCN(c5ccc(C(=O)N[C@H]6CC[C@H](Oc7ccc(C#N)c(Cl)c7)CC6)nc5)CC4)C3)cc1)=N[C@@H](Cc1ncco1)c1nnc(C)n1-2 [I-89] | < 500 nM | < 500 nM | – | – |
| < 500 nM | < 500 nM | – | – | Cc1sc2c(c1C)C(c1ccc(OC[C@H]3CC[C@]4(C3)CN(c3ccc(C(=O)N[C@H]5CC[C@H](Oc6ccc(C#N)c(Cl)c6)CC5)nn3)CCO4)cn1)=N[C@@H](Cc1ncco1)c1nnc(C)n1-2 [I-405] | < 500 nM | < 500 nM | – | – |
| < 500 nM | > 3000 nM | – | – | Cc1sc2c(c1C)C(c1ccc(OC3CC4(CCN(c5ccc(C(=O)N[C@H]6CC[C@H](Oc7ccc(C#N)c(Cl)c7)CC6)nn5)CC4)C3)cc1)=N[C@H](Cc1ncco1)c1nnc(C)n1-2 [I-80] | < 500 nM | > 3000 nM | – | – |
| < 500 nM | < 500 nM | – | – | Cc1sc2c(c1C)C(c1ccc(OC3CC4(C3)CN(c3ccc(C(=O)N[C@H]5CC[C@H](Oc6ccc(C#N)c(Cl)c6)CC5)nn3)C4)cc1)=N[C@@H](Cc1ncco1)c1nnc(C)n1-2 [I-91] | < 500 nM | < 500 nM | – | – |
| < 500 nM | < 500 nM | – | – | Cc1sc2c(c1C)C(c1ccc(C#CC3CC4(C3)CN(c3ccc(C(=O)N[C@H]5CC[C@H](Oc6ccc(C#N)c(Cl)c6)CC5)nn3)C4)nc1)=N[C@H](Cc1ncco1)c1nnc(C)n1-2 [I-322] | < 500 nM | < 500 nM | – | – |
| < 500 nM | < 500 nM | – | – | Cc1sc2c(c1C)C(c1ccc([C@H]3C[C@H]([C@@H]4CCCN(c5ccc(C(=O)N[C@H]6CC[C@H](Oc7ccc(C#N)c(Cl)c7)CC6)nn5)C4)C3)cc1)=N[C@@H](Cc1ncco1)c1nnc(C)n1-2 [I-377] | < 500 nM | < 500 nM | – | – |
| < 500 nM | < 500 nM | – | – | Cc1sc2c(c1C)C(c1ccc(C#CC3CC4(C3)CN(c3ccc(C(=O)N[C@H]5CC[C@H](Oc6ccc(C#N)c(Cl)c6)CC5)nn3)C4)cn1)=N[C@H](Cc1ncco1)c1nnc(C)n1-2 [I-281] | < 500 nM | < 500 nM | – | – |
| < 500 nM | < 500 nM | – | – | Cc1sc2c(c1C)C(c1ccc(O[C@@H]3CC[C@@]4(CCCN(c5ccc(C(=O)N[C@H]6CC[C@H](Oc7ccc(C#N)c(Cl)c7)CC6)nn5)C4)C3)cn1)=N[C@@H](Cc1ncco1)c1nnc(C)n1-2 [I-362] | < 500 nM | < 500 nM | – | – |
| < 500 nM | < 500 nM | – | – | Cc1sc2c(c1C)C(c1ccc(CCO[C@@H]3CCCN(c4ccc(C(=O)N[C@H]5CC[C@H](Oc6ccc(C#N)c(Cl)c6)CC5)nn4)C3)cc1)=N[C@@H](Cc1ncco1)c1nnc(C)n1-2 [I-278] | < 500 nM | > 3000 nM | – | – |
| 500 to 1500 nM | 500 to 1500 nM | – | – | Cc1sc2c(c1C)C(c1ccc(O[C@H]3C[C@@]4(CCCN(c5ccc(C(=O)N[C@H]6CC[C@H](Oc7ccc(C#N)c(Cl)c7)CC6)nn5)C4)C3)cc1)=N[C@@H](C)c1nnc(C)n1-2 [I-349] | < 500 nM | > 3000 nM | – | – |
| 500 to 1500 nM | < 500 nM | – | – | Cc1sc2c(c1C)C(c1ccc([C@H]3C[C@@H](C4CC5(CCN(c6ccc(C(=O)N[C@H]7CC[C@H](Oc8ccc(C#N)c(Cl)c8)CC7)nn6)CC5)C4)C3)cc1)=N[C@H](Cc1ncco1)c1nnc(C)n1-2 [I-382] | < 500 nM | > 3000 nM | – | – |
